# Test results reported in article PMC10924921, “Mi-2β promotes immune evasion in melanoma by activating EZH2 methylation” (Nature Communications, 2024).
# Assays:
# Assay in all cases: biochemical
# Parameters in all cases: KINOMEscan active-site competition binding panel (468 kinase assays), per cent of control at 1000 nM
# Details in all cases: KINOMEscan per cent of control (binding competition); read-out: Percent Control
# NEK2 = NEK2 (Homo sapiens, UniProt P51955)
# Description: (§1) Figure S7 / Percent Control
# EGFR(L861Q) = EGFR(L861Q) (Homo sapiens, UniProt P00533, L861Q)
# Description: as §1
# S6K1 = target: T1, S6K1 (Homo sapiens, UniProt P23443)
# T1 construct: gene RPS6KB1
# Description: as §1
# MARK4 = MARK4 (Homo sapiens, UniProt Q96L34)
# Description: as §1
# DYRK2 = DYRK2 (Homo sapiens, UniProt Q92630)
# Description: as §1
# MYLK = MYLK (Homo sapiens, UniProt Q15746)
# Description: as §1
# [1] = target: T2, RSK4(Kin.Dom.1-N-terminal) (Homo sapiens, UniProt Q9UK32)
# T2 construct: gene RPS6KA6; Kin.Dom.1-N-terminal
# Description: as §1
# CHEK2 = CHEK2 (Homo sapiens, UniProt O96017)
# Description: as §1
# [2] = target: T3, RPS6KA5(Kin.Dom.2-C-terminal) (Homo sapiens, UniProt O75582)
# T3 construct: Kin.Dom.2-C-terminal
# Description: as §1
# TNK2 = TNK2 (Homo sapiens, UniProt Q07912)
# TNK2, sequence (Q07912 whole entry): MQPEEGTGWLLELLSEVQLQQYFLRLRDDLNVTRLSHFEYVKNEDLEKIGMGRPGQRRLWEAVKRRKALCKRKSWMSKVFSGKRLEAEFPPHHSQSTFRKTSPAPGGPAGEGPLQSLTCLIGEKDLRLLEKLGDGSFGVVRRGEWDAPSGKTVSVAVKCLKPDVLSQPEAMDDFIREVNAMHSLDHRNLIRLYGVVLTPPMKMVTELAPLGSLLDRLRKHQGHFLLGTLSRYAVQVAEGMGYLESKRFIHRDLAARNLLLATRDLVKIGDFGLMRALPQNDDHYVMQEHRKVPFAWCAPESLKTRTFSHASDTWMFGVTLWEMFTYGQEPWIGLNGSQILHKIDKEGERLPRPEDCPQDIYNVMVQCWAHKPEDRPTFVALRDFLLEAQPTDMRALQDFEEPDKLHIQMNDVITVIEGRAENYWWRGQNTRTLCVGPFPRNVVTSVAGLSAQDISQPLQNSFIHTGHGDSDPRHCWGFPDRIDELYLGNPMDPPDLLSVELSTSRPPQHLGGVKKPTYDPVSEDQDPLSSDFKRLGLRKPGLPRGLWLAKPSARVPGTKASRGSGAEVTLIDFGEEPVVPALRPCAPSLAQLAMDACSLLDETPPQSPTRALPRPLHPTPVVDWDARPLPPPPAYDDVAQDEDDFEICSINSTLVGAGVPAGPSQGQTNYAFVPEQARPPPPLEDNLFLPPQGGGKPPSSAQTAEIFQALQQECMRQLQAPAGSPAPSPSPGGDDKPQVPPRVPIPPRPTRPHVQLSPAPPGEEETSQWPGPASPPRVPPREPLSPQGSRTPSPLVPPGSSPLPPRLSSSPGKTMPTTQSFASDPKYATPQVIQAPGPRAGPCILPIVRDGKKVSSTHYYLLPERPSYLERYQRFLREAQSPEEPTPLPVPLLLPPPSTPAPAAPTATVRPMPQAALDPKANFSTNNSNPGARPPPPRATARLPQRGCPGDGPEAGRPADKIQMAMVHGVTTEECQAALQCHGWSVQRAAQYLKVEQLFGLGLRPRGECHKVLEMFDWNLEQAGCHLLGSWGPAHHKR
# Description: as §1
# ALK(L1196M) = ALK(L1196M) (Homo sapiens, UniProt Q9UM73, L1196M)
# Description: as §1
# BRAF(V600E) = BRAF(V600E) (Homo sapiens, UniProt P15056, V600E)
# BRAF(V600E), sequence (P15056 whole entry V600E): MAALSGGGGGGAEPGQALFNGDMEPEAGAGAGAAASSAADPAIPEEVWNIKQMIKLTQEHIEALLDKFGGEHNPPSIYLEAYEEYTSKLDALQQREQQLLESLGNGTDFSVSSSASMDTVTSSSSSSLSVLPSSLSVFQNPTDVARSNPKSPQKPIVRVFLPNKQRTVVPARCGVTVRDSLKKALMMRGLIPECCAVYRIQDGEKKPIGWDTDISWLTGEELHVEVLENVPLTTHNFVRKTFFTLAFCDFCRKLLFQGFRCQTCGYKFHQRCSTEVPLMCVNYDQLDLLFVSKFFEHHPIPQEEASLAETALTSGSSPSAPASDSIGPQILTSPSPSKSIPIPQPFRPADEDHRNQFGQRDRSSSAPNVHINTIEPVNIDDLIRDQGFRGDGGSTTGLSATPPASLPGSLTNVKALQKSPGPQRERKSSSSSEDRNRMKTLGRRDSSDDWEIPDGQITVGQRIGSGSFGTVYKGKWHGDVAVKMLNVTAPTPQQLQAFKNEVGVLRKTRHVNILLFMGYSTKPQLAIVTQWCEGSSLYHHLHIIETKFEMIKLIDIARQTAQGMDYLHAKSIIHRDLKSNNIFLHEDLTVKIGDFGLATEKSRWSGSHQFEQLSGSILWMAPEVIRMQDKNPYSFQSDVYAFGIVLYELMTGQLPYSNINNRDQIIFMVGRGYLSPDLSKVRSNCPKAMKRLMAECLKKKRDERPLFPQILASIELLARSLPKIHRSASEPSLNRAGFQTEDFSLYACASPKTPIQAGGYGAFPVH
# Description: as §1
# EPHA6 = EPHA6 (Homo sapiens, UniProt Q9UF33)
# EPHA6, sequence (Q9UF33 whole entry): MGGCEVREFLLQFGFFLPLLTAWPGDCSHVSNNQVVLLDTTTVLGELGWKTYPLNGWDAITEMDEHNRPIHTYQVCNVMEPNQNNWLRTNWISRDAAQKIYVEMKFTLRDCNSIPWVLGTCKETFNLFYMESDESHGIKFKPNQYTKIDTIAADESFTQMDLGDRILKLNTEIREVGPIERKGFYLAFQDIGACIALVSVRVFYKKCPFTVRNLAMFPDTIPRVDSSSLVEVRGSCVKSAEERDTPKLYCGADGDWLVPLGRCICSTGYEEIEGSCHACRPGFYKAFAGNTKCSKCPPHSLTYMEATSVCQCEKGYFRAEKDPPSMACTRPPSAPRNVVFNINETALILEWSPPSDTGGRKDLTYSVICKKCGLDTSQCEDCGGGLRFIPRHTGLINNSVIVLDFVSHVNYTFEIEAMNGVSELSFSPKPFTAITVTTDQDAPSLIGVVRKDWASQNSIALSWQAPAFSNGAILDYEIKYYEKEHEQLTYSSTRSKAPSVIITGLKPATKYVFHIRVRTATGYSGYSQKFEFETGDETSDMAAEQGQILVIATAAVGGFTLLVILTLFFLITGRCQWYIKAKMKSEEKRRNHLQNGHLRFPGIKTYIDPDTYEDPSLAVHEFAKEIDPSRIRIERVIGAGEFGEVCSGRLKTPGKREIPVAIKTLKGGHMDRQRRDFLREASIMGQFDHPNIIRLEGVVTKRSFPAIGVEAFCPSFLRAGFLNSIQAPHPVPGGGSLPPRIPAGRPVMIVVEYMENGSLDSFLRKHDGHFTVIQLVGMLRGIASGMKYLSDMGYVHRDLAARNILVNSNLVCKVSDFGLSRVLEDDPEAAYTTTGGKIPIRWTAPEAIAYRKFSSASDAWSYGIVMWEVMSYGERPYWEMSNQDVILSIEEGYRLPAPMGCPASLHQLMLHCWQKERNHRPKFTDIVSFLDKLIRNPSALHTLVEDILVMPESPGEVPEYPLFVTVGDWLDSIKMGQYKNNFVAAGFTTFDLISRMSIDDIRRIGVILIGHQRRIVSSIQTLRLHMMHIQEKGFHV
# Description: as §1
# MAPKAPK5 = MAPKAPK5 (Homo sapiens, UniProt Q8IW41)
# MAPKAPK5, sequence (Q8IW41 whole entry): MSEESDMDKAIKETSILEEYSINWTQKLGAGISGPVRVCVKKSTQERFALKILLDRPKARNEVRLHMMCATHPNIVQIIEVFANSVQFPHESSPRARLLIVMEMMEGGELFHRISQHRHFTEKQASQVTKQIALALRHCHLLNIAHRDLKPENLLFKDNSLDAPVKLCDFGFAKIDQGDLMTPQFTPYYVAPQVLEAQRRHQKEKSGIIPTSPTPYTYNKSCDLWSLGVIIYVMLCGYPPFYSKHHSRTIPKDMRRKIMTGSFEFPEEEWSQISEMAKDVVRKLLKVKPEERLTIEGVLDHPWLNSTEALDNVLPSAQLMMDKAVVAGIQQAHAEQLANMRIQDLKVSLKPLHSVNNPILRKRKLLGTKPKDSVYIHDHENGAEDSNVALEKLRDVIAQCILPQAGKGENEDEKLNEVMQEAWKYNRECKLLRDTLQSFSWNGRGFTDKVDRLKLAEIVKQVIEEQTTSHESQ
# Description: as §1
# CAMK2D = CAMK2D (Homo sapiens, UniProt Q13557)
# CAMK2D, sequence (Q13557 whole entry): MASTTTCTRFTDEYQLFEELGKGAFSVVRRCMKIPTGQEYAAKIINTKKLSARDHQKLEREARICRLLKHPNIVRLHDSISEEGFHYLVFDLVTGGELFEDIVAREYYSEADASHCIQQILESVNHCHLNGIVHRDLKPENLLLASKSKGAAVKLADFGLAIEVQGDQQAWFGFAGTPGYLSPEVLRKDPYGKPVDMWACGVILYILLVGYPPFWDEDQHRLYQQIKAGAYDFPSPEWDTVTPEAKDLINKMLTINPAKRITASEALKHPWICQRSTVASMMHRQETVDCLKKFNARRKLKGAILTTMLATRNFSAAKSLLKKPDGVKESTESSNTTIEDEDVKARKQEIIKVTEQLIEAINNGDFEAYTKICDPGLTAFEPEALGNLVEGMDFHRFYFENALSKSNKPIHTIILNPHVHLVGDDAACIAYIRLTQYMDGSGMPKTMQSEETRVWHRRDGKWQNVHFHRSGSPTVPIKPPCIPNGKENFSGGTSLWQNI
# Description: as §1
# EPHB4 = EPHB4 (Homo sapiens, UniProt P54760)
# Description: as §1
# PIK3CB = PIK3CB (Homo sapiens, UniProt P42338)
# Description: as §1
# AURKB = AURKB (Homo sapiens, UniProt Q96GD4)
# Description: as §1
# ERN1 = ERN1 (Homo sapiens, UniProt O75460)
# Description: as §1
# PRKG2 = PRKG2 (Homo sapiens, UniProt Q13237)
# Description: as §1
# KIT(A829P) = KIT(A829P) (Homo sapiens, UniProt P10721, A829P)
# Description: as §1
# PAK3 = PAK3 (Homo sapiens, UniProt O75914)
# Description: as §1
# CLK3 = CLK3 (Homo sapiens, UniProt P49761)
# Description: as §1
# RET = RET (Homo sapiens, UniProt P07949)
# RET, sequence (P07949 whole entry): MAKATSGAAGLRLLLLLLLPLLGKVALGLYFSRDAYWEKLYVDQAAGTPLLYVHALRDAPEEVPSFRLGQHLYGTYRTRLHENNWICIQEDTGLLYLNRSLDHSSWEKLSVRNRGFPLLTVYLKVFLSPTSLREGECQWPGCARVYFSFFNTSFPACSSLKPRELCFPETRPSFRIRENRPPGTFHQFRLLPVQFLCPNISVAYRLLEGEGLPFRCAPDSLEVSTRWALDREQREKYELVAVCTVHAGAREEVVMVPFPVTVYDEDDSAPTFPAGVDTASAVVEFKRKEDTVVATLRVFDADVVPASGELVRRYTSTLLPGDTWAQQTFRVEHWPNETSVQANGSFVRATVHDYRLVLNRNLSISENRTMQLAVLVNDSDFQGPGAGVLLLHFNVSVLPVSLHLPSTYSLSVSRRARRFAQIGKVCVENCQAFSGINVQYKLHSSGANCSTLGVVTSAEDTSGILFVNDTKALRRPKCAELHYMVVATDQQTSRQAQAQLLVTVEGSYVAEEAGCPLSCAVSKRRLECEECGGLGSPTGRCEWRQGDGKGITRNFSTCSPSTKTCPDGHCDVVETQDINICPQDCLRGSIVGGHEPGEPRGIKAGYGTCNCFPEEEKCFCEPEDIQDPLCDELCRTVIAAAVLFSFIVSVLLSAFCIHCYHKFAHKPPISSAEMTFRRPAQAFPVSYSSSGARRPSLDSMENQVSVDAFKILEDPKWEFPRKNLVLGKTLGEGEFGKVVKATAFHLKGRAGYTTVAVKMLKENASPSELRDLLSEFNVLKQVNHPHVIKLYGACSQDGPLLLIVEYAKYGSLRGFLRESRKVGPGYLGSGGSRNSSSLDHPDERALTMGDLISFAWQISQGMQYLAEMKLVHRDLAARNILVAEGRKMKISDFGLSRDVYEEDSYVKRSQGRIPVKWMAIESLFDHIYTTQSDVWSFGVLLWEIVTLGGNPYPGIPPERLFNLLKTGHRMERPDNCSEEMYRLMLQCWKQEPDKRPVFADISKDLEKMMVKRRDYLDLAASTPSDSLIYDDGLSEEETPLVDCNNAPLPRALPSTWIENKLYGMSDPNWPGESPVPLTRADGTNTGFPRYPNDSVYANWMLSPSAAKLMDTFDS
# Description: as §1
compound,measurement,setting,value
Cn1c(=O)[nH]c2ccc(-c3cccc(C(=O)NC4CCn5ccnc5C4)c3)cc21 (stereo not drawn) [Z36-MP5],remaining binding at 1 µM,NEK2,100%
same,remaining binding at 1 µM,EGFR(L861Q),69%
same,remaining binding at 1 µM,S6K1,50%
same,remaining binding at 1 µM,MARK4,95%
same,remaining binding at 1 µM,DYRK2,84%
same,remaining binding at 1 µM,MYLK,81%
same,remaining binding at 1 µM,[1],36%
same,remaining binding at 1 µM,CHEK2,58%
same,remaining binding at 1 µM,[2],51%
same,remaining binding at 1 µM,TNK2,41%
same,remaining binding at 1 µM,ALK(L1196M),78%
same,remaining binding at 1 µM,BRAF(V600E),89%
same,remaining binding at 1 µM,EPHA6,69%
same,remaining binding at 1 µM,MAPKAPK5,63%
same,remaining binding at 1 µM,CAMK2D,89%
same,remaining binding at 1 µM,EPHB4,84%
same,remaining binding at 1 µM,PIK3CB,71%
same,remaining binding at 1 µM,AURKB,84%
same,remaining binding at 1 µM,ERN1,49%
same,remaining binding at 1 µM,PRKG2,88%
same,remaining binding at 1 µM,KIT(A829P),78%
same,remaining binding at 1 µM,PAK3,71%
same,remaining binding at 1 µM,CLK3,91%
same,remaining binding at 1 µM,RET,67%
